According to PubChem BioAssay (NCI):
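Dose response: 5 concentrations. Exposure: 48 h. Format: 96-well plates. Endpoint: linear interpolation; highest concentration if not reached. Here, GI50 denotes the concentration required for 50% inhibition of growth. TGI marks complete inhibition of growth.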

Experiments:
Assay in all cases: inhibition of tumour cell growth, NCI panel, 48 h
SK-MEL-28 melanoma = tested on: SK-MEL-28 melanoma
MDA-MB-231 breast = tested on: MDA-MB-231 breast
NCI-H460 lung = tested on: NCI-H460 lung
SN12C renal = tested on: SN12C renal
HCC-2998 colon = tested on: HCC-2998 colon
BT-549 breast = tested on: BT-549 breast
HOP-92 NSCLC = tested on: HOP-92 NSCLC
U251 CNS = tested on: U251 CNS
UACC-62 melanoma = tested on: UACC-62 melanoma
SF-268 CNS = tested on: SF-268 CNS

| SMILES | GI50 (SK-MEL-28 melanoma) [µM] | TGI (SK-MEL-28 melanoma) [µM] | GI50 (MDA-MB-231 breast) [µM] | TGI (MDA-MB-231 breast) [µM] | GI50 (NCI-H460 lung) [nM] | TGI (NCI-H460 lung) [µM] | GI50 (SN12C renal) [µM] | TGI (SN12C renal) [µM] | GI50 (HCC-2998 colon) [nM] | TGI (HCC-2998 colon) [µM] | GI50 (BT-549 breast) [nM] | TGI (BT-549 breast) [µM] | GI50 (HOP-92 NSCLC) [µM] | TGI (HOP-92 NSCLC) [µM] | GI50 (U251 CNS) [µM] | TGI (U251 CNS) [µM] | GI50 (UACC-62 melanoma) [µM] | TGI (UACC-62 melanoma) [µM] | TGI (SF-268 CNS) [µM] | GI50 (SF-268 CNS) [µM] |
| --- | --- | --- | --- | --- | --- | --- | --- | --- | --- | --- | --- | --- | --- | --- | --- | --- | --- | --- | --- | --- |
| CC[C@@]12C=CCN3CC[C@]4(c5cc(NC(=O)COc6cc(OCC(=O)Nc7cc8c(cc7OC)N(C)[C@H]7[C@@](O)(C(=O)OC)[C@H](OC(C)=O)[C@]9(CC)C=CCN%10CC[C@]87[C@@H]%109)cc7oc(-c8ccccc8)cc(=O)c67)c(OC)cc5N(C)[C@@H]4[C@](O)(C(=O)OC)[C@H]1OC(C)=O)[C@H]32 | > 100 | > 100 | 2.68 | 9.08 | 2550 | 7.15 | 7.27 | > 100 | 1890 | 3.99 | 3700 | > 100 | 7.07 | 80.4 | 3.29 | > 100 | 20.1 | 64.6 |  |  |
| CCCCCCCCCCCCCC(=O)NCC(OCC)OCC |  | > 100 |  |  |  | > 100 |  | > 100 |  | > 100 |  |  |  | > 100 |  | > 100 |  | > 100 | > 100 |  |
| COc1ccc2ccccc2c1CN1CCOCCOCCN(Cc2c(OC)ccc3ccccc23)CCOCCOCC1 |  | > 65 |  |  |  | > 100 |  | > 100 |  | 35.3 |  |  |  | > 70 |  | > 100 |  | > 100 | > 100 |  |
| CCN(CC)CCOc1c(OC)c(Br)cc2c(C)c(C(=O)OC)oc12 |  |  | 1.22 | 3.46 | 1310 | 3.75 | 0.92 | 2.36 | 2420 | 7.41 | 1610 | 5.62 |  |  | 0.28 | 0.97 | 1.33 | 4.92 | 5.08 | 1.33 |
| COc1ccc([C@@H](O)c2cc(-c3ncnc4cc(N5CCOCC5)ccc34)c(F)cc2Cl)nn1 | 2.07 | 38.1 | 4.96 | > 100 | 2920 | 43.4 | 2.45 | > 100 | 2850 | 18.7 | 1440 | 20.3 | 0.382 | > 100 | 6.22 | 53.8 |  |  | > 100 | 5.99 |
| CC1=C(/C=C/C(C)=C/C=C/C(C)=C/C=C/C=C(C)/C=C/C=C(C)/C=C/C2=C(C)C(=O)C(O)CC2(C)C)C(C)(C)CC(O)C1=O (centres undefined) |  | > 100 |  |  |  | > 100 |  | > 100 |  | > 100 |  |  |  | > 100 |  | > 100 |  | > 100 | > 100 |  |
| N#Cc1c(C[n+]2ccccc2)c2ccccc2oc1=O |  | > 100 |  |  |  | > 100 |  | > 100 |  | > 100 |  |  |  |  |  | > 100 |  | > 100 | > 100 |  |
| COc1cc2c3c(ncc2c(OC)c1OC)-c1cc2c(cc1C3)OCO2 | 39.1 | > 100 | 11.5 | 29.5 | > 100000 | > 100 |  |  | > 100000 | > 100 |  |  | 61.1 | > 100 | 27.6 | > 100 | 22.4 | 65.9 |  |  |
| O=C(O)Cc1ccccc1CCc1ccccc1Cl |  | > 100 |  |  |  | > 100 |  | > 100 |  | > 100 |  |  |  | > 100 |  | > 100 |  |  | > 100 |  |
| COc1nc(C)cc2c(=O)n(-c3ccccc3)n(CC(O)CN3CCN(c4ccc(Cl)cc4)CC3)c(=O)c12 (centres undefined) | > 50 | > 50 | > 50 | > 50 | > 50000 | > 50 | > 50 | > 50 | > 50000 | > 50 |  |  | 7.08 | 18.5 | 30.6 | > 50 | 46.6 | > 50 | > 50 | 24.8 |
| CCOC(=O)C1=C(Nc2ccc(Cl)c(Cl)c2)OC/C1=N\NC(=O)Cc1ccccc1 |  | > 100 |  |  |  | > 100 |  | > 100 |  | > 100 |  |  |  |  |  | > 100 |  | > 100 | > 100 |  |
| COC(=O)[C@]1(C)C(OC)=CC(=O)C2C1[C@H]1CCC[C@@H]21 (some centres undefined) |  | > 100 |  |  |  | > 100 |  | > 100 |  | > 100 |  |  |  | > 100 |  | > 100 |  | > 100 | > 100 |  |
| COC(=O)c1ccc(CN2C(=O)C(Cl)=C(Nc3ccc(OC)c(Cl)c3)C2=O)cc1 | 8.48 | 30.7 | 7.14 | 26.3 | 14800 | > 50 | 9.04 | 33.7 |  |  | 11300 | 26.7 | > 50 | > 50 | 7.26 | 19.5 | 7.32 | 21.1 | > 50 | 15.4 |
| COc1cc(/C=C/c2ccc(OC)c(OC)c2OC)cc(OC)c1OC |  | 37.7 |  |  |  | 56.2 |  | > 69.5 |  | 18.6 |  |  |  | 31.8 |  | 36.2 |  | 28.1 | > 64.2 |  |
| COc1cc(C2c3cc4c(cc3[C@@H](OCCN(C)C)C3COC(=O)[C@H]23)OCO4)cc(OC)c1O (some centres undefined) |  | 4.1 |  |  |  | 0.441 |  | 0.606 |  |  |  |  |  | 1.55 |  | 1.27 |  | 1.38 | 3.83 |  |
| O=C1CCN2CCC(=O)c3c2c(cc2ccccc32)N1 |  |  |  |  |  | > 100 |  | > 100 |  | > 100 |  |  |  |  |  | > 100 |  | > 100 | > 100 |  |
| Clc1ccc2c(c1)[nH]c1c2nc2sccn21 |  | > 100 |  |  |  | > 100 |  | > 100 |  | > 100 |  |  |  | > 100 |  | > 100 |  | > 100 | > 100 |  |
| COc1c(Sc2ccccc2)cc(Sc2ccccc2)c2cccnc12 |  | > 100 |  |  |  | 54.5 |  | 97.6 |  | > 100 |  |  |  |  |  | 70.7 |  | 63.2 | > 100 |  |
| CS(=O)(=O)NNS(=O)(=O)c1ccc(Cl)cc1 |  |  |  |  |  | > 100 |  | > 100 |  | > 100 |  |  |  |  |  | > 100 |  | > 100 |  |  |
| Clc1ccc(-c2c(C3=NCCN3)nnn2-c2ccccc2)cc1 |  | > 100 |  |  |  | > 100 |  | > 100 |  | > 100 |  |  |  | > 100 |  | > 100 |  | > 100 | > 100 |  |
